# Measured values as given in patent US20160331662A1, “Compositions that Inhibit and Prevent the Formation of Dental Caries and Methods of Using the Same” (priority 2014, published 2016).
# Tests used:
# iSRCR1 [1] = biological target: T1, iSRCR1 (Homo sapiens, UniProt Q9UGM3); assay: SPR binding of analytes to immobilized iSRCR1 (CM5 chip, 1:1 Langmuir); conditions: for direct binding to immobilized iSRCR1 (in words): substance alone over CM5 chip
# T1 construct: strongly proves that a single SRCR domain contains the adherence sites for AgI/II and SspB; made in house; host or cells: Drosophila expression system
# Procedure: (§1) Real time binding analyses of the SRCR domains with AgI/II fragments were carried out using the BIAcore 2000 system. […] Self association of iSRCR1 or iSRCR123 (at 2 μM) were also determined in a similar manner as described above. Finally to determine the effect of calcium SPR analysis was carried out by dialyzing the analytes and ligands in binding buffer devoid of CaCl2.
# (§2) In addition, the SRCR holding two distinct surfaces compounded the elucidation of individual kinetics, and presently there are no modeling protocols available to determine the individual affinities for such a system, therefore for simplicity we have utilized a single site 1:1 Langmuir model. All experiments were carried out in triplicates and the kinetics of the association (KA) and dissociation (KD) rate constants were deduced using the 1:1 Langmuir Kinetic model on the BIA-Evaluation software. The concentration (C in μM) of analyte (FL^AgI/II or FL^SspB at 2 μM) that adhered to the immobilized ligand (iSRCR1, iSRCR123) within the flow cell was calculated using the formula C=(RU/MW)×(1/V), where RU is resonance unit (1 RU=1 pg of bound protein), MW is molecular weight of analyte and V is volume of flow cell (1.2×10^−10 L).
# iSRCR1 (Deglycosylated) = biological target: T2, iSRCR1 (Deglycosylated) (Homo sapiens, UniProt Q9UGM3); assay: SPR binding of analytes to on-chip deglycosylated iSRCR1; conditions: ligand iSRCR1 (Deglycosylated)
# T2 construct: strongly proves that a single SRCR domain contains the adherence sites for AgI/II and SspB; made in house; host or cells: Drosophila expression system
# Procedure: as §1
# (§3) On-chip Deglycosylation of the iSRCR1 and iSRCR123 was carried out after immobilizing them on CM5 sensor chip. Enzymatic deglycosylation was done to remove N- and O-linked carbohydrates from iSRCR1 and iSRCR123. Briefly, after immobilization of iSRCR1 and iSRCR123, deglycosylation was carried out at native conditions by incubating the entire chip surface externally with a cocktail containing a total reaction volume of 40 μl made up of 4 μl of 10×G7reaction buffer, 4 μl of 10% NP40, 4 μl of Neuraminidase (Sigma), 18 μl water and 10 μl of O-glycosidase (New England Biolabs, Inc.,) and similarly following manufacturers protocols for EndoH (New England Biolabs, Inc). Later, the chip was sealed and incubated overnight at 37° C. Subsequently the chip was thoroughly washed with binding buffer (20 mM HEPES, 150 mM NaCl, 2.5 mM CaCl2) to remove the deglycosylating enzymes and other remnants. Binding studies with FL^AgI/II and FL^SspB and subfragments were then carried out as described above and regenerated as described in Table 2.
# as §2
# iSRCR123 [2] = biological target: T3, iSRCR123 (Homo sapiens, UniProt Q9UGM3); assay: SPR binding of analytes to immobilized iSRCR123 (CM5 chip, 1:1 Langmuir); conditions: for direct binding to immobilized iSRCR123 (in words): substance alone over CM5 chip
# T3 construct: multiple SRCR domains have better adherence capability compared to that of a single SRCR domain; made in house; host or cells: Drosophila expression system
# Procedure: as §1, §2
# [3] = biological target: T4, iSRCR123 (Deglycosylated) (Homo sapiens, UniProt Q9UGM3); assay: SPR binding of analytes to on-chip deglycosylated iSRCR123; conditions: ligand iSRCR123 (Deglycosylated)
# T4 construct: multiple SRCR domains have better adherence capability compared to that of a single SRCR domain; made in house; host or cells: Drosophila expression system
# Procedure: as §1, §3, §2
# iSRCR1 [4] = biological target: T1, iSRCR1; assay: Competition adherence SPR on immobilized iSRCR1; type: binding; conditions: FL injected first
# Procedure: (§4) To determine whether AgI/II domains bound to the same site on SRCR domains, competitive binding SPR experiments were conducted in triplicates as previously described where each fragment of AgI/II (FL, A3VP1, or C123) or SspB (FL, A3VP1 or C123) was initially passed over the chip surface immobilized with either iSRCR1, iSRCR123 or SAG for 60 seconds to saturate available binding sites. The response curve of AgI/II or SspB first fragment was recorded, where the maximal RU (RU1) was considered as the base line for the second injection, and thereafter the competing fragment was injected and its response was recorded as RU2. The adherence of the second fragment was then calculated (RU2−RU1) for all SPR competing assay as reported earlier.
# iSRCR123 [5] = biological target: T3, iSRCR123; assay: Competition adherence SPR on immobilized iSRCR123; type: binding; conditions: FL injected first
# Procedure: as §4
# SAG = biological target: T5, SAG (Homo sapiens, UniProt Q9UGM3); conditions: from reference [15]; read-out: affinity of interaction with SAG; cited from earlier work
# T5 construct: from tissue; host or cells: saliva (purified SAG, gift)
# S. gordonii DL1 [6] = assay: Flow cytometric analysis of iSRCR adherence to bacteria; type: cell-based; conditions: 10 μM, compared with S. mutans
# Procedure: (§5) S. mutans UA159 and S. gordonii DL1 cells were grown overnight in TSY broth media at 37° C. and washed thoroughly with FACS buffer (20 mM HEPES pH 7.4, 150 mM NaCl and 5% non-fat dry milk) to reduce non-specific binding. Subsequently, 10 μM of iSRCR1 or iSRCR123 were added to 100 μl of cells (1×10^7 cells/ml) in binding buffer (FACS buffer+2.5 mM CaCl2) and incubated for 60 min at 37° C. The cells were later washed thoroughly with binding buffer to remove unbound iSRCRs. Subsequently, Anti-His tag Alexafluor 488 antibody (1:50 dilution) (EMD Millipore, Inc) that adheres to the His tag present on SRCRs was added to the cells and incubated for 30 min, washed three times and resuspended in 200 μl of binding buffer. Samples without iSRCRs served as control. Samples were then assayed using the FACScan machine (BD Biosciences) at the Analytical and Preparative Cytometry Facility (APCF) at UAB, and data obtained was analyzed using FlowJo 7.2.4 software.
# S. mutans UA159 [7] = assay: as above; type: cell-based; conditions: 10 μM
# Procedure: as §5
# S. mutans UA159 [8] = assay: Confocal microscopy of iSRCR adherence to bacteria; type: cell-based; conditions: 10 μM
# Procedure: S. mutans UA159 and S. gordonii DL1 were grown overnight in TSY (30 g/L of Trypticase soy broth and 0.5 g/L yeast extract, pH 7.2) media on an eight-well Lab Tek Chamber slide system (Sigma). The cells were fixed with 3% paraformaldehyde, washed with binding buffer (20 mM HEPES pH 7.4, 150 mM NaCl and 2.5 mM CaCl2), and thereafter iSRCR1 or iSRCR123 (10 μM) were added to the cells and incubated for 60 min. The unbound SRCRs were removed by repeated washing using the binding buffer. Subsequently, Alexa fluor 488 conjugated Anti-His-tag antibody (EMD Millipore, Inc) (1:50 dilution) that can bind to the His Tag on SRCRs was added. After 60 min incubation the unbound antibody was washed away thoroughly using binding buffer, and the chamber walls were gently removed. Cover slips were then mounted with 15 μl of fluoromount-G with DAPI (Southern Biotech Inc) to stain bacterial nuclei and were sealed until ready to be imaged. The experiment without SRCRs served as control. All slides were imaged using Leica SP1 UV Confocal Laser Scanning Microscope and Zeiss LSM 710 Confocal Laser Scanning Microscope at the UAB-High resolution imaging facility (UAB-HRIF).
# S. gordonii DL1 [9] = assay: Aggregation assay (OD700 over 60 min); type: cell-based; conditions: iSRCR 10 μM or SAG, 6 mM CaCl2
# Procedure: (§6) Aggregation assays were performed as described earlier with slight modifications. Briefly, S. mutans UA159 and S. gordonii DL1 cells were grown in TSY broth media overnight at 37° C. in the presence of 5% CO2. The bacteria were centrifuged at 5000×g and washed with a buffer containing 20 mM HEPES pH 7.4, 150 mM NaCl and re-suspended to an approximate OD700 of 1. The bacterial suspension (900 μl) was mixed with 100 μl of SAG or iSRCR1 (10 μM) or iSRCR123 ([…]) or commercially synthesized (Think Peptides, Inc) SRCRP2 peptide with fluorescein amidite (FAM) at the carboxyl end ([…]-[FAM]) (SEQ ID NO:9, at both 400 μg/ml and 1 mg/ml) in the presence of 6 mM CaCl2 and aggregation was measured by recording OD700over 60 min at 5 min intervals, where the buffer alone was used as control. All experiments were carried out at least five times, and the results were analyzed with One-way ANOVA. Post-hoc testing where *, P<0.05 was considered statistically significant and results were presented as the percentage of cells aggregated.
# S. mutans UA159 [10] = assay: Aggregation assay (OD700 over 60 min); type: cell-based; conditions: iSRCR 10 μM or SAG, 6 mM CaCl2
# Procedure: as §6
# AgI/II VheI (S. mutans) = assay: SPR binding of SRCR peptide to immobilized surface protein (Example 3)
# Procedure: (§7) Binding of the SRCR peptide […] (SEQ ID NO: 10) to immobilized bacterial surface proteins was determined using procedures as described in Example 1.
# (§8) The interaction of the SRCR peptide […] (SEQ ID NO:10) with immobilized bacterial surface proteins AgI/II, SspB and GbpC as examined by surface plasmon resonance studies are shown in FIGS. 27A, 27B and 27C respectively, and binding affinities determined from these studies are listed in Table 8.
# GbpC (S. mutans) = assay: as above
# Procedure: as §7, §8
# SspB VheI (S. gordonii) = assay: as above
# Procedure: as §7, §8
# T4 sequence (Q9UGM3 102-463 limits assumed): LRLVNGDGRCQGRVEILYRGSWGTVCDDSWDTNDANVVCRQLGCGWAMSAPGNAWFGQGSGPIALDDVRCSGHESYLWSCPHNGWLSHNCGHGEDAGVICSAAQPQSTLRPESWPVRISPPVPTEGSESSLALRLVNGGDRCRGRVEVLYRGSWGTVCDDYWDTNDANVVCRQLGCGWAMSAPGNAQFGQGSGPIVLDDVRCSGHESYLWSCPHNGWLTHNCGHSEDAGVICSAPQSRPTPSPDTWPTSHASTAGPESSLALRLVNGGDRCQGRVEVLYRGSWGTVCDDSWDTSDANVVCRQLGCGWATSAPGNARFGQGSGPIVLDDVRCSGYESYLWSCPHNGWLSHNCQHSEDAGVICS
# T3 sequence (Q9UGM3 102-463 limits assumed): as above
# Sequence of AgI/II VheI (S. mutans) (P23504 464-840 limits assumed): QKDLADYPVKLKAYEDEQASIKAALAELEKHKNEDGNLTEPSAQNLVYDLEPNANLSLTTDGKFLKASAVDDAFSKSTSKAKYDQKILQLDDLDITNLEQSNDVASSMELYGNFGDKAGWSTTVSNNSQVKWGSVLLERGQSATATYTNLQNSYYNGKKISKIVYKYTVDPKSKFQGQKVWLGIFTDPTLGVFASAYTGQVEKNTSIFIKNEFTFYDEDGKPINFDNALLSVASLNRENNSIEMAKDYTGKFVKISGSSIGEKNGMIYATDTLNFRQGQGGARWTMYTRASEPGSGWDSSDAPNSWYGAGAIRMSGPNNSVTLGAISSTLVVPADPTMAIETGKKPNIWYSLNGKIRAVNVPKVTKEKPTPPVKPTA
# T1 sequence (Q9UGM3 102-202 limits assumed): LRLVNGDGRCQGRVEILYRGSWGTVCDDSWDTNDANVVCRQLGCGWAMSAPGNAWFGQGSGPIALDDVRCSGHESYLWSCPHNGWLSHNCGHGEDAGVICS
# T2 sequence (Q9UGM3 102-202): as the sequence (Q9UGM3 102-202 limits assumed) above
# T5 sequence (Q9UGM3 20-2413): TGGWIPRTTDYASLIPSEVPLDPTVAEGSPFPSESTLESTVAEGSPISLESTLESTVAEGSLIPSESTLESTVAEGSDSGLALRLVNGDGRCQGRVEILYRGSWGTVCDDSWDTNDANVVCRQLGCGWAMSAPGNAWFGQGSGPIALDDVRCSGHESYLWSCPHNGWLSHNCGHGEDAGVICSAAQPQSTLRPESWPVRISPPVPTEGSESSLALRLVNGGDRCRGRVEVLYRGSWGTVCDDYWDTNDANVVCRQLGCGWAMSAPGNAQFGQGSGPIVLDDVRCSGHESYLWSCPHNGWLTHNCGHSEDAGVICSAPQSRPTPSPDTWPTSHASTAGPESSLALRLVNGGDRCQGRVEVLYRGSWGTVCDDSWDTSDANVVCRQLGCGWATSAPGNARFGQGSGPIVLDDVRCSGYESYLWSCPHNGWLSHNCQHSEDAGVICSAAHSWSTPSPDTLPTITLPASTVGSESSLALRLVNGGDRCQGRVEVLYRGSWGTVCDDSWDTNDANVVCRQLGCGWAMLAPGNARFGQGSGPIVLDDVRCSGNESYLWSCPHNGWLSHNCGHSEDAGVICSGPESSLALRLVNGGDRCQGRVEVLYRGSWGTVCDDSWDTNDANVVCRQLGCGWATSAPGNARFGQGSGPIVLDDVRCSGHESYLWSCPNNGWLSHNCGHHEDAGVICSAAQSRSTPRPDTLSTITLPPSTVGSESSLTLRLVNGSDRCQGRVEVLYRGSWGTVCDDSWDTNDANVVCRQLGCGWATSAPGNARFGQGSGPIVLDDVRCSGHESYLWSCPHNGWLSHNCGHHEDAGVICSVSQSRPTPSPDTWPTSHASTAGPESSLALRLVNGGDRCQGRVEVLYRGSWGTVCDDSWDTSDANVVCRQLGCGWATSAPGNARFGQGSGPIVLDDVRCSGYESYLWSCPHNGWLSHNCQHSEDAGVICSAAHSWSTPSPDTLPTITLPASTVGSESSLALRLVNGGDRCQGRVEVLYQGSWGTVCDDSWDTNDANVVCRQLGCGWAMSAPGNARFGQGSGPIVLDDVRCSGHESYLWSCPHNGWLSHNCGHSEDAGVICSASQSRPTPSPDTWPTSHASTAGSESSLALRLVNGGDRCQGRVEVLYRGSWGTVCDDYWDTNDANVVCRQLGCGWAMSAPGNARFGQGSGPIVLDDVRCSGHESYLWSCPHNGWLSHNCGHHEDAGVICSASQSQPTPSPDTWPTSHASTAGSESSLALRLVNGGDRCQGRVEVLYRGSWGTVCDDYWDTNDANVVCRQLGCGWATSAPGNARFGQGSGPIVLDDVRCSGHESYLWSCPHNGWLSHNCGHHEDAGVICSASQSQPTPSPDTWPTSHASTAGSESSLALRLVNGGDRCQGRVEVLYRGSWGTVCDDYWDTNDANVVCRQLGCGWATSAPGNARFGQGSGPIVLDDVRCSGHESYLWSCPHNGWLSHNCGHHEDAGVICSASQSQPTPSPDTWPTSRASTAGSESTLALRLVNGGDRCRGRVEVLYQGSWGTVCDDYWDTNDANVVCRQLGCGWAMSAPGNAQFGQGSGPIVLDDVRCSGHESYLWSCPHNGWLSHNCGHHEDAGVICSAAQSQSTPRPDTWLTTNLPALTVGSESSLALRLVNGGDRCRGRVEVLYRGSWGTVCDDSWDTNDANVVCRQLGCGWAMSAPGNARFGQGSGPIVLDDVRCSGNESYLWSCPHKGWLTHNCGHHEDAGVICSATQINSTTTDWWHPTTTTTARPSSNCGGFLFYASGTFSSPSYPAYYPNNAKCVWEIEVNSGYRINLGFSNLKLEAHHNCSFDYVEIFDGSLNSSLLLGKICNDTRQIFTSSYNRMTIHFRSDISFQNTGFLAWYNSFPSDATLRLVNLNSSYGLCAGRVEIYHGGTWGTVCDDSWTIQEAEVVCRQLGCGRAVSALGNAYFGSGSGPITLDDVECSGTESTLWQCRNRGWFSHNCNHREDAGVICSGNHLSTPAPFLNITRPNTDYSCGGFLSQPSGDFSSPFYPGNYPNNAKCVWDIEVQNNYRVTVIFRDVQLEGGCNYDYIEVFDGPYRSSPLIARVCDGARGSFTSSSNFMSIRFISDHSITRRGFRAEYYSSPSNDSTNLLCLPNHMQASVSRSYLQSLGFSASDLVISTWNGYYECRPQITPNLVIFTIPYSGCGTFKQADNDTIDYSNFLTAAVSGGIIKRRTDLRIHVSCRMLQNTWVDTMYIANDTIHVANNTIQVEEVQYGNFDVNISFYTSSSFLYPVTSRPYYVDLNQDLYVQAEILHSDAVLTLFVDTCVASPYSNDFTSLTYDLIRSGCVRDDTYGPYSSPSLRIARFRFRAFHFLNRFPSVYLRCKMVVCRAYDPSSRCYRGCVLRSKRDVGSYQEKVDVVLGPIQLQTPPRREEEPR
substance,measurement,setting,value
FL^AgI/II: S. mutans AgI/II full length construct (167.5 kDa),KA,iSRCR1 [1]; ligand iSRCR1,1.31e+08 M⁻¹
same,Kd,iSRCR1 [1]; ligand iSRCR1,7.69 nM
same,ka,iSRCR1 [1]; ligand iSRCR1,127000 M⁻¹ s⁻¹
same,kd,iSRCR1 [1]; ligand iSRCR1,0.000976 s⁻¹
same,KA,iSRCR1 (Deglycosylated),865000 M⁻¹
same,Kd,iSRCR1 (Deglycosylated),1160 nM
same,ka,iSRCR1 (Deglycosylated),49700 M⁻¹ s⁻¹
same,kd,iSRCR1 (Deglycosylated),0.0575 s⁻¹
same,"quantity of protein that adhered to iSRCR123, higher than iSRCR1","iSRCR123 [2]; analyte at 2 μM, iSRCR123 versus iSRCR1",16%
same,KA,iSRCR123 [2]; ligand iSRCR123,1.34e+08 M⁻¹
same,Kd,iSRCR123 [2]; ligand iSRCR123,7.46 nM
same,ka,iSRCR123 [2]; ligand iSRCR123,99700 M⁻¹ s⁻¹
same,kd,iSRCR123 [2]; ligand iSRCR123,0.000743 s⁻¹
same,KA,[3],6.82e+06 M⁻¹
same,Kd,[3],147 nM
same,ka,[3],3160 M⁻¹ s⁻¹
same,kd,[3],0.000464 s⁻¹
same,inhibition of binding of the A3VP1 fragment of the same protein,iSRCR1 [4],46%
same,inhibition of binding of the C123 fragment of the same protein,iSRCR1 [4],36%
same,inhibition of binding of the A3VP1 fragment of the same protein,iSRCR123 [5],44%
same,inhibition of binding of the C123 fragment of the same protein,iSRCR123 [5],25%
same,Kd,SAG,33.3 nM
thaumatin [reference compound],direct binding to immobilized iSRCR1 (in words),iSRCR1 [1],not
same,direct binding to immobilized iSRCR123 (in words),iSRCR123 [2],not
iSRCR123: recombinant construct of three tandem SRCR domains of Gp340 (43 kDa),adherence by FACS (in words),S. gordonii DL1 [6],lower adherence
same,increase in fluorescence intensity compared to the control,S. mutans UA159 [7],~100 fold
same,binding to cells by confocal microscopy (in words),S. mutans UA159 [8],binding
same,percentage of cells aggregated,S. gordonii DL1 [9],48%
same,percentage of cells aggregated,S. mutans UA159 [10],69%
Lysozyme [reference compound],direct binding to immobilized iSRCR1 (in words),iSRCR1 [1],binding
same,direct binding to immobilized iSRCR123 (in words),iSRCR123 [2],binding
ETNDANVVARQL [SRCR peptide],KA,AgI/II VheI (S. mutans),1.56e+08 M⁻¹
same,Kd,AgI/II VheI (S. mutans),6.42 nM
same,Rmax,AgI/II VheI (S. mutans),43.3 Ru
same,ka,AgI/II VheI (S. mutans),1.08 × 10^7 1/ms
same,kd,AgI/II VheI (S. mutans),0.696 s⁻¹
same,KA,GbpC (S. mutans),2.57e+08 M⁻¹
same,Kd,GbpC (S. mutans),3.89 nM
same,Rmax,GbpC (S. mutans),232 Ru
same,ka,GbpC (S. mutans),1.47 × 10^7 1/ms
same,kd,GbpC (S. mutans),0.0573 s⁻¹
same,KA,SspB VheI (S. gordonii),1.42e+08 M⁻¹
same,Kd,SspB VheI (S. gordonii),7.02 nM
same,Rmax,SspB VheI (S. gordonii),110 Ru
same,ka,SspB VheI (S. gordonii),4.44 × 10^6 1/ms
same,kd,SspB VheI (S. gordonii),0.0312 s⁻¹
